Experimental data taken from US10889625B2, “Peptide-based methods for treating neurological injury” (THE REGENTS OF THE UNIVERSITY OF COLORADO, a body corporate, priority 2016, dated 2021).
Residues, ends and D or L forms follow the SMILES beside them.

Legend:
[1] = mice, MCAO
[2] = target: TRPM2 ion channels (Mus musculus, UniProt Q91YD4); settings: males and females, background statement; cited from earlier work
[3] = target: T1, TRPM2 channels (Mus musculus, UniProt Q91YD4); assay: 60 min tMCAO, total hemisphere infarct volume (TTC) in WT mice; type: in vivo; settings: given 3 hours after MCAO
T1 construct: from tissue; host or cells: mouse brain in vivo; acute hippocampal/brain slices from mice
T1 sequence (Q91YD4 whole entry): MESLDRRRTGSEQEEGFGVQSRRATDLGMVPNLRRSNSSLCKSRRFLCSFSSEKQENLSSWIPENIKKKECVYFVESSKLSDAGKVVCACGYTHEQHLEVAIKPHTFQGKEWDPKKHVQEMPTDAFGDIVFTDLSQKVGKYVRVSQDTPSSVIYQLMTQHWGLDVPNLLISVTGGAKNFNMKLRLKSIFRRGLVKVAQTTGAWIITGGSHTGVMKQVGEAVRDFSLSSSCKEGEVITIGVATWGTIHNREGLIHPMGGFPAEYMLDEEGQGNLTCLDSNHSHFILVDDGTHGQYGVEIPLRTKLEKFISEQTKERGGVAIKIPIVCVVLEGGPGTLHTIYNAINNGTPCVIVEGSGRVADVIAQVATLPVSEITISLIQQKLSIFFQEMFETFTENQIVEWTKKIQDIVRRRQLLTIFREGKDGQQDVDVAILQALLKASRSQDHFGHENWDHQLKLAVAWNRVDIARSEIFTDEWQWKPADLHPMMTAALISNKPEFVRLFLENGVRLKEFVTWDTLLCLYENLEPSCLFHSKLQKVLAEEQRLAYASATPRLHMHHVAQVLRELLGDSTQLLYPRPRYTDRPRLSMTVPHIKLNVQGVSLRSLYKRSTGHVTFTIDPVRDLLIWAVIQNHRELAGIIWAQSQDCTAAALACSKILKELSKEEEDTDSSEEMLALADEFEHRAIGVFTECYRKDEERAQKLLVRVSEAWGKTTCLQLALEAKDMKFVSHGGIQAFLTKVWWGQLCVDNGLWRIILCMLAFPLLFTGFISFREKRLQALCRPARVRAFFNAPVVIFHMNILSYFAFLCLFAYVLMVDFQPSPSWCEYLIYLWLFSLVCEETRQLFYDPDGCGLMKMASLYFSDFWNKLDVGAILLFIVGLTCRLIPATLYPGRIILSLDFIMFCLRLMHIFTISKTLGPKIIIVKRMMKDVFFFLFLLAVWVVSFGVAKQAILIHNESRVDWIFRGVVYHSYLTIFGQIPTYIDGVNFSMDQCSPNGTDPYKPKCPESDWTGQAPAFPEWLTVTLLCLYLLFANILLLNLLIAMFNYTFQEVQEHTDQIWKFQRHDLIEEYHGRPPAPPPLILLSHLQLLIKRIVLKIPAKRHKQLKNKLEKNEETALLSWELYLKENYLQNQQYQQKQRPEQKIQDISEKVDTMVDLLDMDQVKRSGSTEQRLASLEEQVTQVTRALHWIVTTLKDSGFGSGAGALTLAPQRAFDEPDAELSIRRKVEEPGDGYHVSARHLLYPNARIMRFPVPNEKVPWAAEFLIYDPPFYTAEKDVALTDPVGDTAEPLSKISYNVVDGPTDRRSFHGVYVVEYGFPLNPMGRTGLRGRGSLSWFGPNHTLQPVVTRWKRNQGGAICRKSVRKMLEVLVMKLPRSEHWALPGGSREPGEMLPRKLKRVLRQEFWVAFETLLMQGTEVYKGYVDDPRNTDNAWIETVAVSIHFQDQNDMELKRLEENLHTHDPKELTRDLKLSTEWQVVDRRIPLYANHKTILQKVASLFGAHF

TRPM2 ion channels, sequence (Q91YD4 whole entry): as above

Row | Structure (SMILES) | effect on physiological variables such as blood pressure [1] | infarct size following stroke [2] | infarct volume [3]
1 | CSCC[C@H](NC(=O)[C@H](CCC(=O)O)NC(=O)CNC(=O)[C@@H]1CCCN1C(=O)[C@H](CCC(=O)O)NC(=O)[C@H](CCCNC(=N)N)NC(=O)[C@H](CO)NC(=O)CNC(=O)[C@H](CCCNC(=N)N)NC(=O)[C@H](CCCNC(=N)N)NC(=O)[C@H](CCCNC(=N)N)NC(=O)[C@H](CCC(N)=O)NC(=O)[C@H](CCCNC(=N)N)NC(=O)[C@H](CCCNC(=N)N)NC(=O)[C@H](CCCCN)NC(=O)[C@H](CCCCN)NC(=O)[C@H](CCCNC(=N)N)NC(=O)CNC(=O)[C@@H](N)Cc1ccc(O)cc1)C(=O)N[C@@H](CC(C)C)C(=O)N1CCC[C@H]1C(=O)N[C@@H](CCCNC(=N)N)C(=O)N[C@@H](CCCCN)C(=O)N[C@@H](CC(C)C)C(=O)N[C@@H](CCCCN)C(=O)N[C@@H](CCCNC(=N)N)C(=O)N[C@H](C(=O)N[C@@H](CC(C)C)C(=O)N[C@@H](CCCNC(=N)N)C(=O)N[C@@H](CCC(N)=O)C(=O)N[C@@H](CCC(=O)O)C(=O)N[C@@H](Cc1ccccc1)C(=O)N[C@@H](Cc1c[nH]c2ccccc12)C(=O)N[C@H](C(=O)O)C(C)C)C(C)C [tat-M2NX] (H-YGRKKRRQRRRGSREPGEMLPRKLKRVLRQEFWV-OH; N-terminus and C-terminus assumed) | no effect |  | 
2 | Clc1ccccc1C(c1ccccc1)(c1ccccc1)n1ccnc1 [CTZ, clotrimazole] |  | reduces infarct size in males, but not females | 46.8±7.4%
